Assay results taken from patent US7507718B2, “Polymyxin B analogs for LPS detoxification” (Sanofi Pasteur, priority 2005, dated 2009).
“And” between values parts separate entries of the source, which are not always exact repeats. Equal values may be shown once. Bridge positions count the residues as written; N and C are the ends. Peptide text beside a SMILES is read from it. I, II: the chains in the order shown.

How the values were obtained:
TNFα release = experiment: In vivo cytokine release in sera of CD1 mice (ELISA): TNFα; design: species or system mouse
Method: (§1) In order to evaluate to which extent the LPS-peptide complex can attenuate LPS-induced toxic effects, the effect of the LPS-peptide complex on the release of pro-inflammatory cytokines is monitored (assessed) in in vitro and in vivo assays. • In vivo: cytokine (IL6 and TNFα) releases in the sera of mice immunized either with LPS or LPS-peptide complex are compared by ELISA. Blood samples are recovered 90 min after SC immunization, which is the optimal time for the release of those cytokines. C3H/HeOuJ, TLR4-/-, C3H/HeN and CD1 mouse strains are tested. The two first are sensitive neither to LPS nor LPS-peptide complex. The third and fourth are both found LPS-sensitive. CD1 mice are found more LPS-peptide complex-sensitive than the others and therefore selected for further experiments retaining the most severe conditions. • In vitro:cytokine (IL6, IL8 and TNFα) releases from human whole blood cell cultures stimulated for 24h at 37° C., with different concentrations of LPS or LPS-peptide complex are compared. 5.4.1. In Vivo Assay
(§2) CD1 mice are administered subcutaneously (SC) (i) either 10 μg of LPS or (ii) 10 μg of LPS-peptide complex. They are bled 90 minutes after injection. IL6 and TNFα releases are measured in the sera by ELISA. […]
(§3) The reaction is stopped by adding 100 μl of 1 M H3PO4 per well. Plates are read at 450 nm.

IL6 release = experiment: In vivo cytokine release in sera of CD1 mice (ELISA): IL6; design: species or system mouse
Method: as §1, §2, §3

[1] = tested on: N. meningitidis strain used for LPS production; experiment: Serum bactericidal activity (SBA) of sera of immunized rabbits; assay type: in vivo; details: individual rabbits
Method: Immunization of three adult New-Zealand rabbits is performed with 100 μg of LPS-peptide complex by intramuscular (IM) and subcutaneous (SC) routes (2×0.5 mL and 5×0.2 mL respectively) in the presence of adjuvant. They receive three injections at 3-week interval; the first one with complete Freund adjuvant (FA), the second and third ones with incomplete Freund adjuvant. They are bled two weeks after the last injection. A control group is immunized with the peptide with adjuvant (71 μg, equivalent to the amount of the peptide in 100 μg of LPS-peptide complex) using the same protocol.
The bactericidal activity of the serum (SBA) samples is evaluated against the N. meningitidis strain used for LPS production as described in Example 5 in the presence of baby rabbit serum as exogenous source of complement.
Sera are heat-inactivated during 30 min at 56° C. In the wells of a 96-well microplate, heat-inactivated sera are then twofold serially diluted (10 times) in Dulbecco's phosphate buffered saline containing Ca^++ and Mg^++ (volume per well: 50 μl).
Twenty five μl of a log phase culture of N. meningitidis grown in Mueller-Hinton broth (4.10^3 CFU/mL) and 25 μl of baby rabbit serum are added to each well. The plate is incubated one hour at 37° C., under shaking.
Fifty μl of the mixture from each well are plated onto Mueller-Hinton agar. Petri dishes are incubated overnight at +37° C. in a 10% CO2 atmosphere.
In each experiment, controls include (i) bacteria and the complement source without antibodies (complement control), (ii) bacteria and heat-inactivated complement, and (iii) bacteria and heat-inactivated complement, in the presence of antibodies.
Bactericidal titre is reported as the highest reciprocal serum dilution at which ≧50% killing of bacteria is observed as compared to the complement control.

[2] = 10 μg SC, sera 90 minutes after injection

## CC(C)C[C@@H]1NC(=O)[C@H](CC(C)C)NC(=O)[C@H](CC(C)C)NC(=O)[C@H](Cc2ccccc2)NC(=O)[C@H](CCCCN)NC(=O)[C@@H](NC(=O)[C@H](CCCCN)NC(=O)[C@@H](NC(=O)[C@@H](N)CCCCN)[C@@H](C)O)CSSC[C@@H](C(=O)O)NC(=O)[C@H](CC(C)C)NC(=O)[C@H](CC(C)C)NC(=O)[C@H](CC(C)C)NC(=O)[C@H](Cc2ccccc2)NC(=O)[C@H](CCCCN)NC(=O)[C@@H](NC(=O)[C@H](CCCCN)NC(=O)[C@@H](NC(=O)[C@@H](N)CCCCN)[C@@H](C)O)CSSC[C@@H](C(=O)O)NC1=O [Peptide, NH2-Lys-Thr-Lys-Cys1-Lys-Phe-Leu-Leu-Leu-Cys2-COOH] (I: H-KTKCKFLLLC-OH / II: H-KTKCKFLLLC-OH; disulfide I:4-II:10, I:10-II:4)
TNFα release; [2]
  TNFα release, Mean (pg/mL) n = 6 (log): <1 pg/mL (log)
TNFα release; peptide alone
  Induction of TNFα (in words): does not induce
IL6 release; [2]
  IL6 release, Mean (pg/mL) n = 6 (log): <1 pg/mL (log)
IL6 release; peptide alone
  Induction of IL6 (in words): does not induce
[1]; baseline before immunization, baby rabbit complement
  SBA titre, Pre-immunized sera: 4 and 16
[1]; 100 μg complex or 71 μg peptide IM+SC with Freund adjuvant, three injections
  SBA titre, Post-dose 3 immunized sera: 16
[1]; sera adsorbed on LPS
  SBA titre, Post-dose 3 immunized sera adsorbed on LPS: 4 and 8
